Read-outs that look alike come from different tables or passages of the source.
Experiments:
[1] = biological target: T1, RORγ ligand binding domain (LBD) (Homo sapiens, UniProt P51449); test: TR-FRET Activity Assay (ligand sensing, RORγ-LBD / coactivator peptide interaction, LANCE); assay type: biochemical
T1 construct: made in house; host or cells: E. coli BL-21 (BL3), vector pDEST15
T1 sequence (P51449 269-508 limits assumed): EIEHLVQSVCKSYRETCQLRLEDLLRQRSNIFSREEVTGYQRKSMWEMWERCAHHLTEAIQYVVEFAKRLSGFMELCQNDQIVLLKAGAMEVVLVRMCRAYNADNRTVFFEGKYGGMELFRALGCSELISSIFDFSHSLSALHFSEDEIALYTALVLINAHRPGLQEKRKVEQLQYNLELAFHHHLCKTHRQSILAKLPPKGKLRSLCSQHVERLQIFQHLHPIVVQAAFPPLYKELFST

RORγ = biological target: T2, RORγ (UniProt P51449); test: RORγ Gal4 Reporter Gene Assay in 293T cells (firefly and renilla luciferase); assay type: cell-based, human
T2 sequence (P51449 1-518): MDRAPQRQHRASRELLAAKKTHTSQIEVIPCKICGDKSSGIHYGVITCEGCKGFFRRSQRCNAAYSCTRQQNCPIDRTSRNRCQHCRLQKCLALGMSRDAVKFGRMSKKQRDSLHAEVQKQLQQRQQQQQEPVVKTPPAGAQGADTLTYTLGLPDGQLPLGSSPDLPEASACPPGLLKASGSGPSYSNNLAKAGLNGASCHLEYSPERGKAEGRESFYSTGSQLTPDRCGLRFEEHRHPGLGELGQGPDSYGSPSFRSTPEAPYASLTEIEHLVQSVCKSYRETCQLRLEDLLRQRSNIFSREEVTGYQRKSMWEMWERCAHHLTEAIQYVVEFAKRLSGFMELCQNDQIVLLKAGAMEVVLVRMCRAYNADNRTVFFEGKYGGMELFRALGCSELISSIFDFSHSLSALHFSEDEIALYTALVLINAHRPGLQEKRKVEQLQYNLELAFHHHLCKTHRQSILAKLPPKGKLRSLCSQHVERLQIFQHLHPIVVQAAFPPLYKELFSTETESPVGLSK

[2] = first value of the cell FRET/FF/REN, TR-FRET activity assay, read-out: pIC50 (FRET) (converted)
[3] = second value of the cell, Gal4 reporter gene assay in 293T cells, firefly luciferase
[4] = third value of the cell, Gal4 reporter gene assay in 293T cells, renilla normalised luciferase

SMILES	IC50 [1, 2] [nM]	pIC50 (FF) (RORγ; [3])	pIC50 (REN) (RORγ; [4])	IC50 [1] [nM]	pIC50 (FF) (RORγ)	pIC50 (REN) (RORγ)
CC(=NO)c1cc(-c2cc(C(=O)NC3CCOCC3)c(C)n2CC2CCCCC2)cc(C(C)(C)C)c1 [18/1]	794	7.5	7.7	–	–	–
Cc1c(C(=O)N[C@H]2CC[C@@H](C(=O)O)CC2)cc(-c2cc(C(C)(C)C)c3c(c2)C2(CCO3)CC2)n1CC1CCCCC1 [17/58]	1580	6.7	6.7	–	–	–
Cc1c(C(=O)NCC(C)(C)NS(C)(=O)=O)cc(-c2cc(C(C)(C)C)cc(C(C)(C)C)c2)n1CC1CCCCC1 [1/4]	–	–	–	316	6.5/7.5/7.6	6.5/7.5/7.6
Cc1c(C(=O)NC2COC2)cc(-c2cc(C(C)(C)C)cc(C(C)(C)C)c2)n1S(=O)(=O)N1CCCCCC1 [7/4]	200	7.1	7.1	–	–	–
Cc1c(C(=O)NC2CCOCC2)cc(-c2ccc(S(=O)(=O)NC(C)(C)C)c3sccc23)n1CC1CCCCC1 [17/183]	200	7.9	8.1	–	–	–
Cc1c(C(=O)NCC(C)(C)O)cc(-c2cc(C(=O)NC(C)(C)C)nc(C3(C)CC3)n2)n1CC1CCCCC1 [17/373]	5010	< 4.7	< 4.7	–	–	–
COC(C)(C)c1cc(-c2c(Cl)c(C(=O)N[C@H]3C[C@H](C(=O)O)C3)c(C)n2CC2CCCCC2)cc(C2(C)CC2)c1 [29/2]	2510	7.3	7.1	–	–	–
Cc1c(C(=O)NC2COC2)cc(-c2ccc(C(=O)N3CCCCC3)c(C(C)(C)C)c2)n1CC1CCCCC1 [1/34]	1260	6.8	6.7	–	–	–
Cc1c(C(=O)NCC2(O)CCOCC2)cc(-c2cc(C(C)(C)C)cc(C3(C)CC3)c2)n1CC1CCCCC1 [17/64]	316	7.8	7.7	–	–	–
Cc1c(C(=O)NC2CCOCC2)cc(C2=NN(C(=O)NC(C)(C)C)C3(CCCCC3)C2)n1CC1CCCCC1 [Example 24, N-(tert-Butyl)-3-(1-(cyclohexylmethyl)-5-methyl-4-((tetrahydro-2H-pyran-4-yl)carbamoyl)-1H-pyrrol-2-yl)-1,2-diazaspiro[4.5]dec-2-ene-1-carboxamide]	3160	6.4	6.4	–	–	–
Cc1c(C(=O)NCC2(C(=O)O)CC2)cc(-c2cc(C(C)(C)C)c3c(c2)C2(CCO3)CC2)n1CC1CCCCC1 [17/51]	1580	6.7	6.7	–	–	–
Cc1c(C(=O)N[C@H]2C[C@H](C(=O)O)C2)cc(-c2cc(C(C)(C)O)cc(C(F)(F)F)c2)n1CC1CCCCC1 [17/307]	3160	6.2	6.0	–	–	–
Cc1c(C(=O)N[C@H]2C[C@H](C(=O)O)C2)cc(-c2ccc(S(=O)(=O)NCC(F)(F)F)c3ccccc23)n1CC1CCCCC1 [17/271]	794	7.1	7.1	–	–	–
Cc1c(C(=O)NC2CCOCC2)cc(-c2ccc(C(=O)NC(C)(C)C)c(C(F)(F)F)c2)n1CC1CCCCC1 [6/8]	–	–	–	10000	5.0/6.8/7.3	5.0/6.8/7.3
Cc1c(C(=O)NCC2(C(N)=O)CCOCC2)cc(-c2ccc(S(=O)(=O)NC(C)(C)C)c(C(F)(F)F)c2)n1CC1CCCCC1 [17/203]	501	7.8	7.8	–	–	–
Cc1c(C(=O)N2CCOCC2)cc(-c2ccc(S(=O)(=O)NC(C)(C)C)c(C(F)(F)F)c2)n1CC1CCCCC1 [17/198]	–	–	–	501	6.3/6.8/6.9	6.3/6.8/6.9
Cc1c(C(=O)NCCC(C)(C)C(N)=O)cc(-c2ccc(S(=O)(=O)NC(C)(C)C)c(C(F)(F)F)c2)n1CC1CCCCC1 [17/135]	631	6.7	6.7	–	–	–

SMILES	IC50 [1, 2] [nM]	pIC50 (FF) (RORγ; [3])	pIC50 (REN) (RORγ; [4])	IC50 [1] [nM]	pIC50 (FF) (RORγ)	pIC50 (REN) (RORγ)
Cc1c(C(=O)NCC(C)(C)C(=O)N(C)C)cc(-c2cc(C(C)(C)C)c3c(c2)C2(CCO3)CC2)n1CC1CCCCC1 [11/2]	251	6.9	6.9	–	–	–
Cc1c(C(=O)NC2CCOCC2)cc(-c2cc(C(C)(C)O)cc(C(F)(F)F)c2)n1CC1CCCCC1 [17/306]	1580	6.8	6.9	–	–	–
Cc1c(C(=O)NC2CCOCC2)cc(-c2ccc(S(=O)(=O)NC(C)(C)C)c3cnccc23)n1CC1CCCCC1 [17/369]	–	–	–	1260	5.9/7.5/7.5	5.9/7.5/7.5
Cc1c(C(=O)NCC(C)(C)C(N)=O)cc(-c2ccc(S(=O)(=O)NC(C)(C)C)c(C(F)F)c2)n1CC1CCCCC1 [17/128]	200	8.0	8.0	–	–	–
Cc1c(C(=O)NCCCCCO)cc(-c2ccc(S(=O)(=O)NC(C)(C)C)c(C(C)(C)C)c2)n1CC1CCCCC1 [1/128]	501	7.2	7.2	–	–	–
Cc1c(C(=O)NCC(=O)N(C)C)cc(-c2cc(C(C)(C)C)cc(C(C)(C)C)c2)n1CC1CCCCC1 [1/6]	–	–	–	631	6.2/6.7/6.7	6.2/6.7/6.7
Cc1c(C(=O)NCC2COC2)cc(-c2cc(C(C)(C)C)cc(C(C)(C)C)c2)n1CC1CCCCC1 [17/43]	200	7.4	7.4	–	–	–
Cc1c(C(=O)NC2SC(=O)NC2=O)cc(-c2cc(C(C)(C)C)c3c(c2)C2(CCO3)CC2)n1CC1CCCCC1 (stereo not drawn) [17/24]	3160	5.8	5.7	–	–	–
Cc1c(C(=O)NC2COC2)cc(-c2cc(C(C)(C)C)nc(C(C)(C)C)c2)n1CC1CCCCC1 [1/122]	158	7.0	7.0	–	–	–
Cc1c(C(=O)NC2CCOCC2)cc(-c2ccc(S(=O)(=O)NC(C)(C)C)c(C(C)(C)C)c2)n1CC1CCCCC1 [1/131]	–	–	–	501	6.3/7.8/7.8	6.3/7.8/7.8
Cc1c(C(=O)NCCS(C)(=O)=O)cc(-c2cc(C(C)(C)C)c3c(c2)C2(CCO3)CC2)n1CC1CCCCC1 [1/104]	–	–	–	501	6.3/6.8/6.8	6.3/6.8/6.8
Cc1c(C(=O)NC2CCOCC2)cc(-c2ccc(S(N)(=O)=O)c(C(F)(F)F)c2)n1CC1CCCCC1 [Example 19, 1-(Cyclohexylmethyl)-2-methyl-5-(4-sulfamoyl-3-(trifluoromethyl)phenyl)-N-(tetrahydro-2H-pyran-4-yl)-1H-pyrrole-3-carboxamide]	12600	6.6	6.4	–	–	–
Cc1c(C(=O)N[C@H]2C[C@H](C(=O)O)C2)cc(-c2cc(C(C)(C)C)cc(C3(C)CC3)c2)n1CC1CCCCC1 [17/326]	1000	7.8	7.9	–	–	–
Cc1c(C(=O)NCCC(C)(C)C(=O)O)cc(-c2ccc(S(=O)(=O)N[C@@H](C)C(F)(F)F)c(C(F)(F)F)c2)n1CC1CCCCC1 [17/150]	501	8.0	8.2	–	–	–
Cc1c(C(=O)NCC(C)(C)O)cc(-c2ccc(S(=O)(=O)NC(C)(C)C)c3c(F)cccc23)n1CC1CCCCC1 [17/365]	1260	7.0	7.0	–	–	–
Cc1c(C(N)=O)cc(-c2cccc(C(O)(C(F)(F)F)C(F)(F)F)c2)n1CC1CCCCC1 [1/47]	3980	< 4.7	< 4.7	–	–	–

Reference: US9815851B2, “Pyrrolo carboxamides as modulators of orphan nuclear receptor RAR-related orphan receptor-gamma (RORγ, NR1F3) activity and for the treatment of chronic inflammatory and autoimmune diseases” (PHENEX PHARMACEUTICALS AG, priority 2011, dated 2017)
